Source: paper PMC11456916, “A screen for cell envelope stress uncovers an inhibitor of prolipoprotein diacylglyceryl transferase, Lgt, in Escherichiacoli” (iScience, 2024)
Read-outs that look alike come from different tables or passages of the source.

Tests used:
E. coli CO244 = assay: MIC assay with or without SPR741, E. coli CO244; type: cell-based; conditions: Escherichia coli
Method: (§1) We next sought to determine whether we could achieve growth inhibition of wild-type E. coli using MAC-0452936 and an antibiotic adjuvant. […] To that end, we determined the MIC of MAC-0452936 against wild-type E. coli in the presence and absence of a sub-MIC concentration of SPR741 (Figure S8B). […] We leveraged this combination to characterize the spectrum of activity of MAC-0452936 against a panel of Gram-negative pathogens (Table 2). In the presence of 8 μg/mL SPR741, we observed MAC-0452936 activity against the clinical E. coli isolates C0244 and CFT073 at 2 μg/mL as well as against Salmonella Typhimurium SL1344 at 4 μg/mL.
(§2) For MIC assays, cultures of bacteria were grown in LB broth. Overnight cultures were diluted (1:100) into fresh LB media and grown to the mid-log phase of growth (OD600 ∼0.5). Subcultures were then normalized to an OD600 of 0.1, and diluted (1:5000) into assay media. Assay plates were then incubated for 18 h at 37°C, then OD600 was measured using a Biotek Neo plate reader.

[1] = biological target: T1, prolipoprotein diacylglyceryl transferase, Lgt (Escherichia coli, UniProt P60955); assay: In vitro Lgt biochemical assay (phosphatidylglycerol and Pal-IAAC peptide substrates); set-up: species or system E. coli
T1 construct: Expression, purification, and in vitro Lgt biochemical assay were conducted as described by Diao et al; made in house
Source text: With both genetic and phenotypic evidence supporting MAC-0452936 inhibiting Lgt in E. coli, we next investigated whether MAC-0452936 could inhibit Lgt activity in vitro. Recently, a biochemical assay for Lgt activity was developed using phosphatidylglycerol and Pal-IAAC peptide as substrates.[12] […] As similar results were obtained using two different Lgt enzyme preparations, the inhibition observed by MAC-0452936 was not dependent on the preparation of the lipid matrix. Together, we present genetic, phenotypic, and biochemical evidence that MAC-0452936 inhibits the growth of E. coli through inhibition of Lgt. MAC-0452936 represents a previously undiscovered small molecule inhibitor of bacterial Lgt, and the oxime ester represents a promising chemical scaffold for antibiotic discovery.
Expression, purification, and in vitro Lgt biochemical assay were conducted as described by Diao et al.[12]

K. pneumoniae MKP103 = assay: MIC assay with or without SPR741, K. pneumoniae; type: cell-based, Klebsiella pneumoniae; conditions: for MIC: Klebsiella pneumoniae
Method: as §1, §2

E. coli BW25113 = assay: MIC assay, wild-type E. coli with or without SPR741; type: cell-based
Method: as §1, §2

E. coli ΔtolC-pore = assay: Live cell fluorescence microscopy, cell width; type: cell-based; conditions: increasing concentrations, 1 h, DAPI and FM4-64 stain
Method: Figure 4 MAC-0452936 inhibited prolipoprotein diacylglyceryl transferase, Lgt (A) Growth inhibition of E. coli ΔtolC-pore, three independent MAC-0452936 resistance mutants with a V109A substitution in Lgt (2,959,071A→G), a mutant with an A37T substitution (2,959,288C→T), and a mutant with a G138A substitution (2,958,984C→G). The experiment was conducted in biological triplicate. Data are represented as mean ± SEM. (B) Structure of Lgt from E. coli with two phosphatidyl-glycerol (PG) moieties bound (PDB: 5AZB).[49] Mutated residues from spontaneous resistance mutants are highlighted in blue on proximal α-helices, with the blue sphere highlighting the space in between the mutated residues where both PG moieties reside. […] The width of at least 240 cells was measured at each MAC-0452936 concentration, with specific n values for each concentration of MAC-0452936 listed in the figure. […]
An overnight culture of E. coli ΔtolC-pore was prepared, then diluted (1:100) into fresh LB media and grown to the mid-exponential phase of growth (OD600 ∼0.5). […] Samples were imaged using a Nikon Eclipse Ti inverted microscope at 100× magnification, with a minimum of 200 cells counted per image. Images were quantified with ImageJ, using the following macro. […]

S. Typhimurium SL1344 = assay: MIC assay with or without SPR741, S. Typhimurium; type: cell-based; conditions: Salmonella enterica
Method: as §1, §2

T1 sequence (P60955 whole entry): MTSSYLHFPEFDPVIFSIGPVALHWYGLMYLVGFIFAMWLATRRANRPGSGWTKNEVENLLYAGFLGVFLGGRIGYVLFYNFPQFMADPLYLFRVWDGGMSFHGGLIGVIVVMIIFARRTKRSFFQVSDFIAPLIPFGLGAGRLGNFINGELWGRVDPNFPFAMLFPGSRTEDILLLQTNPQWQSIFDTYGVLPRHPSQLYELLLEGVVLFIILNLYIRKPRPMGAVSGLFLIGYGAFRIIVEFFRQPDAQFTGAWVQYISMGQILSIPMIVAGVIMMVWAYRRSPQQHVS

Compound: COc1ccc(C(=O)O/N=C(\c2cccs2)C(C)(C)C)cc1 [MAC-0452936, (Z)-2-Pivaloylthiophene O-(4-methoxybenzoyl) oxime]
- MIC (E. coli CO244; CO244, read-out: MIC, E. coli CO244 + 8 μg/mL SPR741): 2 µg/mL
- MIC (E. coli CO244; CO244, read-out: MIC, E. coli CO244 + 0 μg/mL SPR741): > 64 µg/mL
- IC50 ([1]; in vitro Lgt inhibition Amph-Lgt IC50, Lgt purified using amphipol lipid matrix): 590 nM
- IC50 ([1]; in vitro Lgt inhibition DDM-Lgt IC50, Lgt purified using DDM lipid matrix): 1450 nM
- MIC, K. pneumoniae MKP103 + 8 μg/mL SPR741 (K. pneumoniae MKP103; 8 μg/mL SPR741): did not observe MAC-0452936 activity
- MIC (K. pneumoniae MKP103; MKP103, read-out: MIC, K. pneumoniae MKP103 + 0 μg/mL SPR741): > 64 µg/mL
- MIC (K. pneumoniae MKP103; MKP103, read-out: MIC, K. pneumoniae MKP103 + 8 μg/mL SPR741): > 64 µg/mL
- MIC (E. coli BW25113; Escherichia coli, BW25113, read-out: MIC, E. coli BW25113 + 0 μg/mL SPR741): > 64 µg/mL
- activity against wild-type (WT) E. coli (E. coli BW25113; growth inhibition, no SPR741, in words): inactive
- effect on cell width and morphology (E. coli ΔtolC-pore): dose-dependent increase in cell width
- MIC (S. Typhimurium SL1344; read-out: MIC, S. Typhimurium SL1344 + 0 μg/mL SPR741): > 64 µg/mL
- MIC (S. Typhimurium SL1344; read-out: MIC, S. Typhimurium SL1344 + 8 μg/mL SPR741): 4 µg/mL
